Counter-ions that a name gives are not always drawn. Like-named read-outs stand apart in the source and are kept apart here.

The target in test [1] is T1, human α-thrombin (Homo sapiens, UniProt P00734).
T1 construct: purified human α-thrombin
Kind of test: Enzyme assay for the inhibition of thrombin (s-2238 chromogenic substrate). The note with it: Table I, determined graphically from Dixon plots, room temperature, pH 7.4, substrate s-2238. The test is classed as biochemical. The protocol:
Enzyme Assays for the Inhibition of Thrombin The following reagents were used in these assays: […] Inhibitors to be tested were dissolved in H2 O, methanol, or DMSO just prior to use. To each well in a 96-well microtiter plate, 270 μl of assay buffer was added. […] The samples were incubated at room temperature for a defined period of time (3 minutes for initial IC50 determinations). The enzymatic reaction was started with 10 μl of 3 mM s-2238 substrate and continued at room temperature. The change in optical density was measured at 405 nm. A kinetic microplate reader (Molecular Devices Corporation .nu.max) was used to measure the change in optical density over time. Table I lists the Ki values for different compounds, Ki value is determined graphically from Dixon plots (plots of reciprocal enzyme velocity i/v vs. linear function of inhibitor concentration at various enzyme substrate concentrations). This methodology is well known in the art.

For test [2], the target named is T1, human α-thrombin. In words: Concentration required for doubling thrombin clotting time (clotting time assay in human plasma). In kind it is biochemical. The note with it: Table II; human citrated plasma, 10 U/ml human thrombin; read-out: DTT (concentration of drug which caused a doubling of the thrombin clotting time). The procedure:
Procedure for Determining the Concentration Required for Doubling Thrombin Clotting Time--Clotting Time Assays
The following reagents were used in these assays:
The blood was centrifugated at […]. The plasma was removed, pooled, and aliquoted into small tubes which were stored frozen for later use.
Clotting times were determined by pipetting 0.1 ml of Owren's buffer (pre-warmed to 37° C.) and 0.1 ml of human or rat plasma into yellow sample cuvettes. For studies with human plasma 10 U/ml human thrombin (10 ml) was placed in the reservoir assembly station of the MLA 700. (Medical Laboratory Automation, Electra 700 Reservoir Assembly). For rat studies, the human thrombin concentration was 25 U/ml. The cuvettes were vortexed and then placed on the MLA 700 sample wheel. The coagulation timer (MLA 700) automatically dispenses 0.1 ml human thrombin into the sample in each cuvette. Detection of the fibrin clot was determined optically by the MLA 700.
Studies were performed to determine the concentration of drug which caused a doubling of the clotting time (DTT) in human plasma.

On to `CC1CCN(C(=O)C(CCCNC(=N)C(=N)N)NS(=O)(=O)c2cccc3c(N(C)C)cccc23)CC1` (stereo not drawn) [Compound 7c, 1-[5-[(2-amino-1,2-diiminoethyl)amino]-2-[[[5-(dimethylamino)-1-naphthalenyl]sulfonyl]amino]-1-oxopentyl]-4-methylpiperidine trihydrochloride hydrate], for which the Ki on human α-thrombin [1] (read-out: Ki) is 0.33 µM. As to `CN(C)c1cccc2c(S(=O)(=O)NC(CCCNC(=N)C(=N)N)C(=O)N3CCCCC3)cccc12` (stereo not drawn) [Compound 7a, 1-[5-[(2-amino-1,2-diminoethyl)amino]-2-[[[5-(dimethylamino)-1-naphthalene]amino]-1-oxopentyl]piperidine hydrochloride], the Ki at human α-thrombin [1] (read-out: Ki) was 3.2 µM. Regarding `CC1CCN(C(=O)C(CCNC(=N)C(=N)N)NS(=O)(=O)c2cccc3c(N(C)C)cccc23)CC1` (stereo not drawn) [Compound 7b], the inhibition constant (Ki) on human α-thrombin [1] (read-out: Ki) stood at 4 µM. The same measure, in the same setting: then `CCCCN(CC(=O)OCC)C(=O)C(CCCNC(=N)C(=N)N)NS(=O)(=O)c1cccc2c(N(C)C)cccc12` (stereo not drawn) [Compound 7f, ethyl N-[5-[(2-amino-1,2-diiminoethyl)amino]-2-[[[5-(dimethylamino)-1-naphthalenyl]sulfonyl]amino]-1-oxopentyl]-N-butylglycinate trihydrochloride hydrate], with 3 µM.

With `N=C(N)C(=N)NCCC(NC(=O)CNS(=O)(=O)c1ccc2ccccc2c1)C(=O)N1CCCCC1` (stereo not drawn) [Compound 7m], the Ki at human α-thrombin [1] (read-out: Ki) came to 36 µM. As for `Cc1ccc(S(=O)(=O)NC(CCNC(=N)C(=N)N)C(=O)N2CCCCC2)cc1` (stereo not drawn) [Compound 7i], the Ki at human α-thrombin [1] (read-out: Ki) was found to be 80 µM. For the molecule `CN(C)c1cccc2c(S(=O)(=O)NC(CCCNC(=N)C(=N)N)C(=O)N3CCCCCC3)cccc12` (stereo not drawn) [Compound 7g, 1-[5-(2-amino-1,2-diiminoethyl)amino]-2-[[[5-(dimethylamino)-1-naphthalenyl]sulfonyl]amino]-1-oxopentyl]homopiperidine trihydrochloride hydrate], on human α-thrombin [2], the IC (2-fold clotting time) is 1.8 µM. Besides, at human α-thrombin [1] (read-out: Ki), the Ki was 0.4 µM.

For the molecule `Cc1ccc(S(=O)(=O)NC(CCCCNC(=N)C(=N)N)C(=O)N2CCCCC2)cc1` (stereo not drawn) [Compound 7k, 1-[6-[(2-amino-1,2-diiminoethyl)aminol]-2-[[(4-methylphenyl)sulfonyl]amino]-1-oxohexyl]piperidine dihydrochloride], the IC (2-fold clotting time) at human α-thrombin [2] turned out to be 150 µM. The Ki on human α-thrombin [1] (read-out: Ki) came to 55 µM.

For the molecule `CCC1CCN(C(=O)C(CCCNC(=N)C(=N)N)NS(=O)(=O)c2cccc3c(N(C)C)cccc23)CC1` (stereo not drawn) [Compound 7d, 1-[5-[(2-amino-1,2-diiminoethyl)amino]-2-[[[5-(dimethylamino)-1-naphthalenyl]sulfonyl]amino]-1-oxopentyl]-4-ethylpiperidine trihydrochloride hydrate], at human α-thrombin [1] (read-out: Ki), the Ki was found to be 0.3 µM. As to `Cc1ccc(S(=O)(=O)NC(CCCNC(=N)C(=N)N)C(=O)N2CCC(C)CC2)cc1` (stereo not drawn) [Compound 7l, 1-[5-[2-(amino-1,2-diiminoethyl)amino]-2-[[(4-methylphenyl)sulfonyl]amino]-1-oxopentyl]-4-methylpiperidine hydrochloride], the Ki at human α-thrombin [1] (read-out: Ki) came out at 18 µM.

For the molecule `Cc1ccc(S(=O)(=O)NC(CCCNC(=N)C(=N)N)C(=O)N2CCCCC2)cc1` (stereo not drawn) [Compound 7j], the Ki at human α-thrombin [1] (read-out: Ki) was found to be 16 µM. Turning to `Cc1ccc(S(=O)(=O)NC(CNC(=N)C(=N)N)C(=O)N2CCCCC2)cc1` (stereo not drawn) [Compound 7h], at human α-thrombin [2], the IC (2-fold clotting time) is more than 300 µM. Further, on human α-thrombin [1], the Ki entry is recorded as “insol”. In the case of `CN(C)c1cccc2c(S(=O)(=O)NC(CCCNC(=N)C(=N)N)C(=O)N3CCOCC3)cccc12` (stereo not drawn) [Compound 7e, 1-[5-[(2-amino-1,2-diiminoethyl)amino]-2-[[[5-(dimethylamino)-1-naphthalenyl]sulfonyl]amino]-1-oxopentyl]morpholine trihydrochloride hydrate], at human α-thrombin [2], the IC (2-fold clotting time) came out at 4 µM. For the same molecule, the Ki on human α-thrombin [1] (read-out: Ki) worked out at 2 µM. Regarding `N=C(N)C(=N)NCCCC(NC(=O)CNS(=O)(=O)c1ccc2ccccc2c1)C(=O)N1CCCCC1` (stereo not drawn) [Compound 7n], on human α-thrombin [1] (read-out: Ki), the inhibition constant Ki was more than 50 µM.

Usually Ki stands for a dissociation constant, usually derived from enzyme kinetics or from competition with a known ligand.

Source of the values: patent publication US5248673A, “Bisamidine derivatives as thrombin inhibitors” (Bristol-Myers Squibb Co., priority 1992, dated 1993).
